{"source": "patent US11897851B2", "about": "“Heterocyclic GLP-1 agonists” (Gasherbrum Bio, Inc., priority 2021, dated 2024)"}
{"biological_target": "T1, GLP-1 Receptor (Homo sapiens, UniProt P43220)", "T1 construct": "host or cells: HEK293/GLP1R/CRE-LUC (HEK293/CRE-Luc stably expressing the GLP-1 receptor)", "T1 sequence (P43220 24-463, species assumed)": "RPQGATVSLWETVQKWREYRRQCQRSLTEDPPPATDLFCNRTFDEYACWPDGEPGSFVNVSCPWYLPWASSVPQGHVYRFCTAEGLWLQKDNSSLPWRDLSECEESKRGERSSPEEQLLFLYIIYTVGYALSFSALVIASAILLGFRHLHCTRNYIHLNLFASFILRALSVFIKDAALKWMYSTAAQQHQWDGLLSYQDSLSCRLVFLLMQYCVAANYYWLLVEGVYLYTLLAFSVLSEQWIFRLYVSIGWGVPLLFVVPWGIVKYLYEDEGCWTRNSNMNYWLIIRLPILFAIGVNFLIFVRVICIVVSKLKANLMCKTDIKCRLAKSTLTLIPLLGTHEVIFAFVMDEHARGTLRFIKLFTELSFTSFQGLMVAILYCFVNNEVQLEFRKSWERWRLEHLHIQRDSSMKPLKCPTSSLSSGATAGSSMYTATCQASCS", "assay": "GLP-1R agonist cAMP stimulation assay (HEK293/GLP1R/CRE-LUC cells, Cisbio cAMP dynamic 2 kit);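 also: compounds tested in half-log serial dilution, cAMP detected with cAMP-d2 and anti-cAMP cryptate antibody reagents after 1 h at room temperature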", "assay_type": "cell-based", "conditions": "HEK293/CRE-Luc cell line stably expressing the GLP-1 Receptor; 1000 cells/well; 30 min at 37° C.; 0.5 mM IBMX, 0.1% BSA; read-out: GLP1R cAMP Stimulation DR: EC50", "units": {"EC50": "nM"}}
{"molecule": "CC1(c2ccc(Cl)cc2F)Oc2cccc(C3CCN(Cc4ncc(/C=C/C(=O)O)n4CCOC(F)F)CC3)c2O1", "note": "(stereo not shown) [Compound 168, (E)-3-(2-((4-(2-(4-chloro-2-fluorophenyl)-2-methylbenzo[d][1,3]dioxol-4-yl)piperidin-1-yl)methyl)-1-(2-(difluoromethoxy)ethyl)-1H-imidazol-5-yl)acrylic acid]", "EC50": 0.046}
{"molecule": "C[C@@H](Cn1c(/C=C/C(=O)O)cnc1CN1CCC(c2cccc3c2O[C@@](C)(c2ccc(Cl)cc2F)O3)CC1)OC(F)F", "note": "[Compound 169a, (E)-3-(2-((4-((S)-2-(4-chloro-2-fluorophenyl)-2-methylbenzo[d][1,3]dioxol-4-yl)piperidin-1-yl)methyl)-1-((S)-2-(difluoromethoxy)propyl)-1H-imidazol-5-yl)acrylic acid]", "EC50": 0.16}
{"molecule": "C[C@H](Cn1c(/C=C/C(=O)O)cnc1CN1CCC(c2cccc3c2O[C@@](C)(c2ccc(Cl)cc2F)O3)CC1)OC(F)F", "note": "[Compound 169b, (E)-3-(2-((4-((S)-2-(4-chloro-2-fluorophenyl)-2-methylbenzo[d][1,3]dioxol-4-yl)piperidin-1-yl)methyl)-1-((R)-2-(difluoromethoxy)propyl)-1H-imidazol-5-yl)acrylic acid]", "EC50": 0.015}
{"molecule": "C[C@@H](Cn1c(/C=C/C(=O)O)cnc1CN1CCC(c2cccc3c2O[C@@](C)(c2ccc(Cl)cc2F)O3)CC1)OC1CC1", "note": "[Compound 170a, (E)-3-(2-((4-((S)-2-(4-chloro-2-fluorophenyl)-2-methylbenzo[d][1,3]dioxol-4-yl)piperidin-1-yl)methyl)-1-((S)-2-cyclopropoxypropyl)-1H-imidazol-5-yl)acrylic acid]", "EC50": 2.5}
{"molecule": "C[C@H](Cn1c(/C=C/C(=O)O)cnc1CN1CCC(c2cccc3c2O[C@@](C)(c2ccc(Cl)cc2F)O3)CC1)OC1CC1", "note": "[Compound 170b, (E)-3-(2-((4-((S)-2-(4-chloro-2-fluorophenyl)-2-methylbenzo[d][1,3]dioxol-4-yl)piperidin-1-yl)methyl)-1-((R)-2-cyclopropoxypropyl)-1H-imidazol-5-yl)acrylic acid]", "EC50": 0.0067}
{"molecule": "CC1(C)C[C@H](Cn2c(/C=C/C(=O)O)cnc2CN2CCC(c3cccc4c3O[C@@](C)(c3ccc(Cl)cc3F)O4)CC2)CO1", "note": "[Compound 171b, (E)-3-(2-((4-((S)-2-(4-chloro-2-fluorophenyl)-2-methylbenzo[d][1,3]dioxol-4-yl)piperidin-1-yl)methyl)-1-(((R)-5,5-dimethyltetrahydrofuran-3-yl)methyl)-1H-imidazol-5-yl)acrylic acid]", "EC50": 17}
{"molecule": "CO[C@@H](C)Cn1c(/C=C/C(=O)O)cnc1CN1CCC(c2cccc3c2O[C@@](C)(c2ccc(Cl)cc2F)O3)CC1", "note": "[Compound 172a, (E)-3-(2-((4-((S)-2-(4-chloro-2-fluorophenyl)-2-methylbenzo[d][1,3]dioxol-4-yl)piperidin-1-yl)methyl)-1-((S)-2-methoxypropyl)-1H-imidazol-5-yl)acrylic acid]", "EC50": 0.048}
{"molecule": "CC1(c2ccc(Cl)cc2F)Oc2cccc(C3CCN(Cc4ncc(/C=C/C(=O)O)n4CC4CN(S(C)(=O)=O)C4)CC3)c2O1", "note": "(stereo not shown) [Compound 174, (E)-3-(2-((4-(2-(4-chloro-2-fluorophenyl)-2-methylbenzo[d][1,3]dioxol-4-yl)piperidin-1-yl)methyl)-1-((1-(methylsulfonyl)azetidin-3-yl)methyl)-1H-imidazol-5-yl)acrylic acid]", "EC50": 6.4}
{"molecule": "CC(=O)N(C)CCn1c(/C=C/C(=O)O)cnc1CN1CCC(c2cccc3c2OC(C)(c2ccc(Cl)cc2F)O3)CC1", "note": "(stereo not shown) [Compound 175, (E)-3-(2-((4-(2-(4-chloro-2-fluorophenyl)-2-methylbenzo[d][1,3]dioxol-4-yl)piperidin-1-yl)methyl)-1-(2-(N-methylacetamido)ethyl)-1H-imidazol-5-yl)acrylic acid]", "EC50": 0.047}
{"molecule": "CN(CCn1c(/C=C/C(=O)O)cnc1CN1CCC(c2cccc3c2OC(C)(c2ccc(Cl)cc2F)O3)CC1)S(C)(=O)=O", "note": "(stereo not shown) [Compound 176, (E)-3-(2-((4-(2-(4-chloro-2-fluorophenyl)-2-methylbenzo[d][1,3]dioxol-4-yl)piperidin-1-yl)methyl)-1-(2-(N-methylmethylsulfonamido)ethyl)-1H-imidazol-5-yl)acrylic acid]", "EC50": 0.058}
{"molecule": "CC1(c2ccc(Cl)cc2F)Oc2cccc(C3CCN(Cc4ncc(/C=C/C(=O)O)n4CC4CC(O)C4)CC3)c2O1", "note": "(stereo not shown) [Compound 177, (E)-3-(2-((4-(2-(4-chloro-2-fluorophenyl)-2-methylbenzo[d][1,3]dioxol-4-yl)piperidin-1-yl)methyl)-1-((3-hydroxycyclobutyl)methyl)-1H-imidazol-5-yl)acrylic acid]", "EC50": 0.18}
{"molecule": "CC1(c2ccc(Cl)cc2F)Oc2cccc(C3CCN(Cc4ncc(/C=C/C(=O)O)n4C4CC(O)C4)CC3)c2O1", "note": "(stereo not shown) [Compound 178, (E)-3-(2-((4-(2-(4-chloro-2-fluorophenyl)-2-methylbenzo[d][1,3]dioxol-4-yl)piperidin-1-yl)methyl)-1-(3-hydroxycyclobutyl)-1H-imidazol-5-yl)acrylic acid]", "EC50": 1.2}
{"molecule": "CC1(c2ccc(Cl)cc2F)Oc2cccc(N3CCN(Cc4ncc(/C=C/C(=O)O)n4C[C@@H]4CCO4)CC3)c2O1", "note": "(stereo partly drawn) [Compound 179, (E)-3-(2-((4-(2-(4-chloro-2-fluorophenyl)-2-methylbenzo[d][1,3]dioxol-4-yl)piperazin-1-yl)methyl)-1-(((S)-oxetan-2-yl)methyl)-1H-imidazol-5-yl)acrylic acid]", "EC50": 0.036}
{"molecule": "C[C@H]1CN(c2cccc3c2OC(C)(c2ccc(Cl)cc2F)O3)CCN1Cc1ncc(/C=C/C(=O)O)n1C[C@@H]1CCO1", "note": "(stereo partly drawn) [Compound 180, (E)-3-(2-(((2S)-4-(2-(4-chloro-2-fluorophenyl)-2-methylbenzo [d][1,3]dioxol-4-yl)-2-methylpiperazin-1-yl)methyl)-1-(((S)-oxetan-2-yl)methyl)-1H-imidazol-5-yl)acrylic acid]", "EC50": 0.026}
{"molecule": "CC1(c2ccc(Cl)cc2F)Oc2cccc(C3CCN(Cc4ncc(/C=C/C(=O)O)n4Cc4ccno4)CC3)c2O1", "note": "(stereo not shown) [Compound 181, (E)-3-(2-((4-(2-(4-chloro-2-fluorophenyl)-2-methylbenzo[d][1,3]dioxol-4-yl)piperidin-1-yl)methyl)-1-(isoxazol-5-ylmethyl)-1H-imidazol-5-yl)acrylic acid]", "EC50": 4.1}
{"molecule": "CC1(c2ccc(Cl)cc2F)Oc2cccc(C3CCN(Cc4nc(/C=C/C(=O)O)cn4Cc4ccno4)CC3)c2O1", "note": "(stereo not shown) [Compound 182, (E)-3-(2-((4-(2-(4-chloro-2-fluorophenyl)-2-methylbenzo[d][1,3]dioxol-4-yl)piperidin-1-yl)methyl)-1-(isoxazol-5-ylmethyl)-1H-imidazol-4-yl)acrylic acid]", "EC50": 93}
{"molecule": "CC1(c2ccc(Cl)cc2F)Oc2cccc(C3CCN(Cc4ncc(/C=C/C(=O)O)n4Cc4ncco4)CC3)c2O1", "note": "(stereo not shown) [Compound 183, (E)-3-(2-((4-(2-(4-chloro-2-fluorophenyl)-2-methylbenzo[d][1,3]dioxol-4-yl)piperidin-1-yl)methyl)-1-(oxazol-2-ylmethyl)-1H-imidazol-5-yl)acrylic acid]", "EC50": 0.015}
{"molecule": "CCc1ncoc1Cn1c(/C=C/C(=O)O)cnc1CN1CCC(c2cccc3c2OC(C)(c2ccc(Cl)cc2F)O3)CC1", "note": "(stereo not shown) [Compound 184, (E)-3-(2-((4-(2-(4-chloro-2-fluorophenyl)-2-methylbenzo[d][1,3]dioxol-4-yl)piperidin-1-yl)methyl)-1-((4-ethyloxazol-5-yl)methyl)-1H-imidazol-5-yl)acrylic acid]", "EC50": 0.24}
{"molecule": "CCC(O)Cn1c(/C=C/C(=O)O)cnc1CN1CCC(c2cccc3c2OC(C)(c2ccc(Cl)cc2F)O3)CC1", "note": "(stereo not shown) [Compound 185, (E)-3-(2-((4-(2-(4-chloro-2-fluorophenyl)-2-methylbenzo[d][1,3]dioxol-4-yl)piperidin-1-yl)methyl)-1-(2-hydroxybutyl)-1H-imidazol-5-yl)acrylic acid]", "EC50": 20}
{"molecule": "O=C(O)/C=C/c1cnc(CN2CCC(c3cccc4c3OC[C@@H](c3ccc(Cl)cc3)O4)CC2)n1Cc1ncco1", "note": "[Compound 186a, (R,E)-3-(2-((4-(2-(4-chlorophenyl)-2,3-dihydrobenzo [b][1,4]dioxin-5-yl)piperidin-1-yl)methyl)-1-(oxazol-2-ylmethyl)-1H-imidazol-5-yl)acrylic acid]", "EC50": 0.41}
{"molecule": "O=C(O)/C=C/c1cnc(CN2CCC(c3cccc4c3OC[C@@H](c3ccc(Cl)cc3)O4)CC2)n1Cc1ccno1", "note": "[Compound 187a, (R,E)-3-(2-((4-(2-(4-chlorophenyl)-2,3-dihydrobenzo [b][1,4]dioxin-5-yl)piperidin-1-yl)methyl)-1-(isoxazol-5-ylmethyl)-1H-imidazol-5-yl)acrylic acid]", "EC50": "> 1000"}
{"molecule": "CCc1ncsc1Cn1c(/C=C/C(=O)O)cnc1CN1CCC(c2cccc3c2OC(C)(c2ccc(Cl)cc2F)O3)CC1", "note": "(stereo not shown) [Compound 188, (E)-3-(2-((4-(2-(4-chloro-2-fluorophenyl)-2-methylbenzo[d][1,3]dioxol-4-yl)piperidin-1-yl)methyl)-1-((4-ethylthiazol-5-yl)methyl)-1H-imidazol-5-yl)acrylic acid]", "EC50": 0.22}
{"molecule": "Cc1ncsc1Cn1c(/C=C/C(=O)O)cnc1CN1CCC(c2cccc3c2OC(C)(c2ccc(Cl)cc2F)O3)CC1", "note": "(stereo not shown) [Compound 189, (E)-3-(2-((4-(2-(4-chloro-2-fluorophenyl)-2-methylbenzo[d][1,3]dioxol-4-yl)piperidin-1-yl)methyl)-1-((4-methylthiazol-5-yl)methyl)-1H-imidazol-5-yl)acrylic acid]", "EC50": 0.022}
{"molecule": "Cc1ncoc1Cn1c(/C=C/C(=O)O)cnc1CN1CCC(c2cccc3c2OC(C)(c2ccc(Cl)cc2F)O3)CC1", "note": "(stereo not shown) [Compound 190, (E)-3-(2-((4-(2-(4-chloro-2-fluorophenyl)-2-methylbenzo[d][1,3]dioxol-4-yl)piperidin-1-yl)methyl)-1-((4-methyloxazol-5-yl)methyl)-1H-imidazol-5-yl)acrylic acid]", "EC50": 0.012}
{"molecule": "CC1(c2ccc(Cl)cc2F)Oc2cccc(C3CCN(Cc4ncc(/C=C/C(=O)O)n4CCC4CC4)CC3)c2O1", "note": "(stereo not shown) [Compound 191, (E)-3-(2-((4-(2-(4-chloro-2-fluorophenyl)-2-methylbenzo[d][1,3]dioxol-4-yl)piperidin-1-yl)methyl)-1-(2-cyclopropylethyl)-1H-imidazol-5-yl)acrylic acid]", "EC50": 0.33}
